# Reference: patent EP0497303B1, “Carbamic acid derivatives and method for preparing the same” (KYORIN PHARMACEUTICAL CO., LTD., priority 1991, dated 1992)
# System: amnesia induced by exposure to carbon dioxide gas
# Assay: Action against amnesia induced by exposure to carbon dioxide gas (step-through passive avoidance)
# Format: in vivo, Std: ddy strain male mice
# Details: for Reaction latency(sec) Mean±S.E: orally immediately after exposure to carbon dioxide gas and one hour before retention trial, retention trial after 24 hours, maximum 300 seconds; for Rate of improvement (%): orally, relative to CO2 treated and non-treated groups
# Excerpt: The apparatus used was a passive avoidance apparatus of a step-through type (made by O'Hara Co., Ltd.). In the aquisition trial, each mouse was placed in the light compartment, a guillotine door of partition thereof was opened after 10 seconds, the guillotine door was closed as soon as the mouse moved into the dark compartment and an electric shock of 33 - 50 v was given for 1 second through the metal grid bars of the floor. Immediately after the electric shock was given, the mouse was taken out and was accommodated in a container having volume of ca. 300 ml filled with carbon dioxide gas. After immediately exposed to carbon dioxide gas having flow rate of ca. 5 liter/min. for 25 - 45 seconds, the mouse was taken out and was reanimated by artificial breathing. The retention trial was carried out after 24 hours. In the retention trial, the mouse was again placed in the light compartment, the time till the movement to the dark compartment was measured as a reaction latency until maximum 300 seconds and the mouse showing latency beyond it was deemed as 300 seconds. In addition, immediately after aquisition trial, a group not to exposed to carbon dioxide gas (comparison group of non-amnesia) was also made. The mouse was grouped per 10 - 30, the subject medicament was orally administered immediately after exposed to carbon dioxide gas and one hour before the retention trial. Rate of improvement =(Latency of CO2 -drug treated group - Latency of carbon dioxide exposed group)/(Latency of non-dementia group - Latency of carbon dioxide exposed group)x 100 [formula]
structure (smiles),measurement,setting,value
"CN1CCCC(OC(=O)Nc2ccccc2)C1 (centres unmarked) [Compound A, 3-(1-methylpiperidinyl) phenylcarbamate]",Reaction latency(sec) Mean±S.E,Dose 100 mg/kg,175.3 ± 36.7 s
same,Rate of improvement (%),Dose 100 mg/kg,15.2%
O=C(Nc1ccc(Cl)cc1)OC1CCN(c2ccncc2)CC1 [Example 2],Reaction latency(sec) Mean±S.E,Dose 10 mg/kg,150.7 ± 27.1 s
same,Rate of improvement (%),Dose 10 mg/kg,42.9%
same,Reaction latency(sec) Mean±S.E,Dose 30 mg/kg,231.2 ± 19.0 s
same,Rate of improvement (%),Dose 30 mg/kg,76.8%
O=C(Nc1ccc(Cl)cc1)OC1CCCN(c2ccncc2)C1 (centres unmarked) [Example 49],Reaction latency(sec) Mean±S.E,Dose 10 mg/kg,154.0 ± 27.2 s
same,Reaction latency(sec) Mean±S.E,Dose 30 mg/kg,183.7 ± 26.3 s
same,Rate of improvement (%),Dose 30 mg/kg,45.3%
C1=Cc2cccc(OCC3CNCCO3)c2C1 (centres unmarked) [Indeloxazine],Reaction latency(sec) Mean±S.E,Dose 40 mg/kg,219.3 ± 17.8 s
same,Rate of improvement (%),Dose 40 mg/kg,30.1%
same,improving activity to disturbance of memory,summary in words of Table 1,vitiated or not enough
COC(=O)C1=C(C)NC(C)=C(C(=O)OCCN(C)Cc2ccccc2)C1c1cccc([N+](=O)[O-])c1 (centres unmarked) [Nicardipine],Reaction latency(sec) Mean±S.E,Dose 5 mg/kg,92.9 ± 28.1 s
same,Rate of improvement (%),Dose 5 mg/kg,-59.8%
